The target of one data set is HLA-A*0101 (Homo sapiens, UniProt P04439, A114D/A174V/A182V/D101N/D185E/E176A/E190D/L180R/Q94H/R68K/S129P/T187R/V100A/V91M/W191G). In words: Class I peptide-binding assay, HLA-A*0101.
Data set [1] relates to tumor cell lines expressing the TAA. Briefly: CTL recognition of endogenous targets (tumor cell lines expressing the TAA). Conditions: for Tumor target cell line: only wells positive for peptide-pulsed targets. Type of data set: cell-based, human.
A further data set deals with HLA-A*0301 (Homo sapiens, UniProt P04439). Briefly: Class I peptide-binding assay, HLA-A*0301.
The next data set deals with HLA-A*1101 (Homo sapiens, UniProt P04439, A114D/D185E/E176A/F33Y/L180Q/S129P/T187R). In words: Class I peptide-binding assay, HLA-A*1101.
For data set [2], the system named is wildtype peptide-pulsed target cells. Briefly: CTL recognition of wildtype peptide-pulsed targets. It counts as cell-based, human. To be noted: for pulsed EHM target cell line: positive responses/total tested, positive = 10% specific lysis above background or twice background and at least 50 pg IFNg/well in at least one of 48 wells.
Data set [3] has as its system peptide-pulsed target cells. To be noted: outside investigators; cited from earlier work.
In another data set the target is HLA-A*2402 (Homo sapiens, UniProt P04439, D101N/D140Y/D185E/E176V/E190D/F33S/G103R/G107R/I119L/I121M/I306V/K335N/L105A/L180Q/L300P/N151K/N90K/Q86E/Q94H/R106L/R138H/R89G/T104I/T345S/V100E/W191G/Y123F). Briefly: Class I peptide-binding assay, HLA-A*2402. To be noted: Table 19a, CEA-derived A24 binders.
The target of the next data set is HLA-A*3101 (Homo sapiens, UniProt P04439, A270S/D185E/E176V/E277Q/F33T/G231S/G80R/H175R/I121M/I218V/I322F/K168Q/L300P/L318F/M331R/P217A/Q94H/R138Q/T323A/T345S/T97I/V358M). Briefly: Class I peptide-binding assay, HLA-A*3101. Conditions: Table 16b, Her2/neu-derived.
The target in the next data set is HLA-A*3301 (Homo sapiens, UniProt P04439, A270S/D185E/E176V/E277Q/E87N/F33T/G231S/H175R/I121M/I218V/I322F/K168Q/K210R/L300P/L318F/M331R/P217A/Q86R/Q94H/R138Q/T323A/T345S/T97I/V358M/Y195H). In words: Class I peptide-binding assay, HLA-A*3301. Conditions: Table 16b, Her2/neu-derived.
The target in a further data set is HLA-A*6801 (Homo sapiens, UniProt P04439, A269V/D185E/E176V/E277Q/E87N/F33Y/G231S/I121M/I166T/I218V/L180W/L300P/L318F/N151K/P208A/P217A/Q86R/R169H/T345S). Briefly: Class I peptide-binding assay, HLA-A*6801. Conditions: Table 16b, Her2/neu-derived.
The conditions of data set [4]: co-emulsified with HPV-derived CTL epitopes; cited from earlier work.
Setting [5] is: 938mel (A3−, Mage2+, Mage3+) and 624mel (A3+, Mage2+, Mage3+).
[6] abbreviates: Table 16c, second part, positive/total tested.
Where [7] appears, read: Table 18a, CEA-derived A1 binders.
[8] abbreviates: Table 16d, second part, positive/total tested.
[9] abbreviates: SW403 (A3+, p53−) and SW403/p53 transfectant (A3+, p53+).

Entries after “also recorded” stand apart in the source; their conditions may differ. Like-named read-outs stand apart in the source and are kept apart here. No end group written: not given here.

We go through 25 compounds from patent US20060094649A1, “Hla-a1,-a2,-a3,-a24,-b7, and-b44 tumor associated antigen peptides and compositions” (priority 2002, published 2006).

For the compound H-LTQEFVQENY-OH, the IC50 on HLA-A*0101 (Table 18c, Mage2/3-derived A1 binders) stood at 96 nM.
`CC(C)C[C@H](NC(=O)[C@H](CC(C)C)NC(=O)[C@H](CC(C)C)NC(=O)[C@H](Cc1ccccc1)NC(=O)[C@H](Cc1c[nH]cn1)NC(=O)[C@@H](NC(=O)[C@@H](N)CC(C)C)C(C)C)C(=O)N[C@@H](CCCCN)C(=O)N[C@@H](CCCCN)C(=O)O` [compound 87]: the “Tumor target cell line” value in data set [1] (setting [5]) is recorded as 0/1. In data set [1] (setting [6]), the “Immunogenicity Tumor” value is 0/1.
For SSCMGGMNR [compound 117], the half-maximal inhibitory concentration (IC50) was 550 nM on HLA-A*0301 (Table 16d, p53-derived) and 4.3 nM at HLA-A*1101 (Table 16d, p53-derived).
Regarding “p53.172B5K10: p53-derived A3 supertype analog, B at position 5 and K at position 10”, the “CTL recognition of wildtype peptide-pulsed targets (in words)” value in data set [2] was “recognize analog and wildtype peptide-pulsed targets; also recorded: recognize both the wildtype sequence; also recorded: lyse wildtype-peptide coated targets”. Besides, the “CTL recognition of tumor / endogenous targets (in words)” value in data set [1] is “transfected tumor target cells; also recorded: p53 transfected tumor targets”; in data set [1] (listed as p53.172.B5KIO), “induce tumor-reactive CTLs”.
As for `CC[C@H](C)[C@H](NC(=O)CNC(=O)[C@H](Cc1ccccc1)NC(=O)[C@@H](NC(=O)[C@@H](N)C(C)C)C(C)C)C(=O)N[C@@H](CC(C)C)C(=O)N[C@H](C(=O)N[C@@H](CCCCN)C(=O)N[C@@H](CCCNC(=N)N)C(=O)O)[C@@H](C)CC` [compound 57], the “Number of CTL inductions yielding positive responses/total tested, Wildtype-pulsed EHM target cell line” value in [2] (positive = 10% specific lysis above background (51Cr release) or twice background and at least 50 pg IFNγ/well in at least one of 48 wells) is 1/3.
Consider `CC[C@H](C)[C@H](NC(=O)CNC(=O)[C@H](Cc1ccccc1)NC(=O)[C@@H](NC(=O)[C@@H](N)C(C)C)C(C)C)C(=O)N[C@@H](CC(C)C)C(=O)N[C@H](C(=O)N[C@@H](CCCCN)C(=O)N[C@@H](CCCNC(=N)N)C(=O)O)[C@@H](C)CC`, for which, in [1] (Table 20), the “Immunogenicity Tumor” value was 0/1.
Consider `CC[C@H](C)[C@H](NC(=O)[C@@H](NC(=O)[C@@H](NC(=O)[C@H](CO)NC(=O)[C@@H](N)Cc1ccccc1)[C@@H](C)O)[C@@H](C)O)C(=O)N[C@@H](CC(N)=O)C(=O)N[C@@H](Cc1ccc(O)cc1)C(=O)N[C@H](C(=O)N[C@@H](CC(C)C)C(=O)N[C@@H](Cc1c[nH]c2ccccc12)C(=O)N[C@@H](CCCNC(=N)N)C(=O)O)[C@@H](C)O` [compound 80], for which the “Immunogenicity Wildtype” value in data set [2] (setting [6]) is reported as 0/2.
On to “MAGE3.189: MAGE3-derived A3 supertype wildtype peptide (Table 16c) (LLGDNQIMPK)”, for which, in data set [3], the “CTL induction / antigenicity reported in the literature (in words)” value is given as “antigenic”.
Regarding H-LTDNNSGSY-OH, the concentration for half-maximal inhibition (IC50) at HLA-A*0101 (setting [7]) was 96 nM.
Consider `CC[C@H](NC(=O)[C@H](CCCNC(=N)N)NC(=O)[C@H](CCCNC(=N)N)NC(=O)[C@@H](NC(=O)[C@@H](N)C(C)C)C(C)C)C(=O)N1CCC[C@H]1C(=O)N[C@@H](Cc1c[nH]cn1)C(=O)N[C@@H](Cc1c[nH]cn1)C(=O)N[C@@H](CCC(=O)O)C(=O)N[C@@H](CCCCN)C(=O)O` [compound 116], for which the “Immunogenicity Wildtype” value in data set [2] (setting [8]) is on record as 1/2. For the same compound, the “pulsed EHM target cell line” value in data set [2] is 1/2. The “Tumor target cell line” value in [1] (setting [9]) is 1/2. For the same compound, the “Immunogenicity Tumor” value in data set [1] (setting [8]) was 1/2.
H-ITEKNSCLY-OH registered an IC50 on HLA-A*0101 (setting [7]) of 641 nM.
`C[C@@H](O)[C@H](NC(=O)[C@@H](N)CCCCN)C(=O)N[C@@H](Cc1ccc(O)cc1)C(=O)N[C@@H](CCC(N)=O)C(=O)NCC(=O)N[C@@H](CO)C(=O)N[C@@H](Cc1ccc(O)cc1)C(=O)NCC(=O)N[C@@H](Cc1ccccc1)C(=O)N[C@@H](CCCCN)C(=O)O`: the “Immunogenicity Wildtype” value in [2] (Table 20) is recorded as 0/1. In [1] (Table 20), the “Immunogenicity Tumor” value is 0/1.
Take `CC[C@H](NC(=O)[C@H](CCCNC(=N)N)NC(=O)[C@H](CCCNC(=N)N)NC(=O)[C@@H](NC(=O)[C@@H](N)C(C)C)C(C)C)C(=O)N1CCC[C@H]1C(=O)N[C@@H](Cc1c[nH]cn1)C(=O)N[C@@H](Cc1c[nH]cn1)C(=O)N[C@@H](CCC(=O)O)C(=O)N[C@@H](CCCCN)C(=O)O` [VVRRBPHHEK]: the “Immunogenicity Wildtype” value in data set [2] (Table 20) is given as 1/2. Besides, the “Immunogenicity Tumor” value in [1] (Table 20) is recorded as 1/2.
With “MAGE3.196 9-mer: MAGE3-derived B7 motif wildtype 9-mer”, in data set [3], the “CTL induction / antigenicity reported in the literature (in words)” value was “antigenicity”.
Regarding H-LWWYNGQSL-OH, the concentration for half-maximal inhibition (IC50) on HLA-A*2402 is 1460 nM.
On to `CC[C@H](C)[C@H](NC(=O)CNC(=O)[C@H](Cc1ccccc1)NC(=O)[C@@H](NC(=O)[C@@H](N)C(C)C)C(C)C)C(=O)N[C@@H](CC(C)C)C(=O)N[C@H](C(=O)N[C@@H](CCCCN)C(=O)N[C@@H](CCCNC(=N)N)C(=O)N[C@@H](CCCNC(=N)N)C(=O)O)[C@@H](C)CC` [compound 58], for which the IC50 at HLA-A*0301 (Table 16b, Her2/neu-derived) came out at 3670 nM; on HLA-A*1101 (Table 16b, Her2/neu-derived) it was 375 nM; at HLA-A*3101 it was 290 nM; at HLA-A*3301, 193 nM; at HLA-A*6801, 15 nM.
As to `CC[C@H](C)[C@H](NC(=O)[C@H](C)NC(=O)[C@H](CCSC)NC(=O)[C@H](C)NC(=O)[C@H](CCCNC(=N)N)NC(=O)[C@@H](NC(=O)[C@H](CCCNC(=N)N)NC(=O)[C@@H](NC(=O)CN)[C@@H](C)O)C(C)C)C(=O)N[C@@H](Cc1ccc(O)cc1)C(=O)N[C@@H](CCCCN)C(=O)O` [compound 111], the “pulsed EHM target cell line” value in data set [2] is 0/1.
Regarding `CC[C@H](C)[C@H](NC(=O)[C@@H](NC(=O)[C@@H](N)[C@@H](C)O)[C@@H](C)O)C(=O)N[C@@H](CC(N)=O)C(=O)N[C@@H](Cc1ccc(O)cc1)C(=O)N[C@H](C(=O)N[C@@H](CC(C)C)C(=O)N[C@@H](Cc1c[nH]c2ccccc12)C(=O)N[C@@H](CCCNC(=N)N)C(=O)O)[C@@H](C)O` [compound 82], the “pulsed EHM target cell line” value in [2] is reported as 7/7. Further, the “Tumor target cell line” value in data set [1] (setting [5]) is recorded as 2/5.
As for H-HSDSNFSPQY-OH, at HLA-A*0101 (setting [7]), the IC50 was found to be 45 nM.
On to `CC(C)[C@H](NC(=O)[C@@H](N)CCCNC(=N)N)C(=O)N[C@@H](CS)C(=O)N[C@@H](C)C(=O)N[C@@H](CS)C(=O)N1CCC[C@H]1C(=O)NCC(=O)N[C@@H](CCCNC(=N)N)C(=O)O` [compound 124], for which the “pulsed EHM target cell line” value in [2] is on record as 0/1.
The same measure, in the same setting: the figure for `CSCC[C@H](NC(=O)[C@H](CC(C)C)NC(=O)[C@H](CCCCN)NC(=O)[C@H](CCCCN)NC(=O)[C@H](Cc1c[nH]cn1)NC(=O)[C@H](CCCNC(=N)N)NC(=O)[C@H](CO)NC(=O)[C@@H](NC(=O)[C@@H](N)CO)[C@@H](C)O)C(=O)N[C@@H](Cc1ccccc1)C(=O)N[C@@H](CCCCN)C(=O)O` [compound 126] is 1/2.
For the compound `CC[C@H](C)[C@H](NC(=O)[C@@H](N)[C@@H](C)O)C(=O)N[C@@H](CO)C(=O)N1CCC[C@H]1C(=O)N[C@@H](CC(C)C)C(=O)N[C@@H](CC(N)=O)C(=O)N[C@H](C(=O)N[C@@H](CO)C(=O)N[C@@H](Cc1ccc(O)cc1)C(=O)N[C@@H](CCCCN)C(=O)O)[C@@H](C)O`, the “Immunogenicity Wildtype” value in data set [2] (Table 20) was 2/3.
Take `CC(C)C[C@H](NC(=O)[C@H](C)NC(=O)[C@@H]1CCCN1C(=O)[C@H](CO)NC(=O)[C@H](Cc1ccc(O)cc1)NC(=O)[C@@H](NC(=O)[C@@H](N)CS)[C@@H](C)O)C(=O)N[C@@H](CC(N)=O)C(=O)N[C@@H](CCCCN)C(=O)O` [compound 107]: the “pulsed EHM target cell line” value in data set [2] is 0/1.
With `C[C@@H](O)[C@H](NC(=O)[C@@H](N)CCCCN)C(=O)N[C@@H](Cc1ccc(O)cc1)C(=O)N[C@@H](CCC(N)=O)C(=O)NCC(=O)N[C@@H](CO)C(=O)N[C@@H](Cc1ccc(O)cc1)C(=O)NCC(=O)N[C@@H](Cc1ccccc1)C(=O)N[C@@H](CCCCN)C(=O)O` [compound 104], the “Immunogenicity Wildtype” value in [2] (setting [8]) is recorded as 0/1. The “pulsed EHM target cell line” value in data set [2] is reported as 0/1. For the same compound, the “Tumor target cell line” value in data set [1] (setting [9]) was 0/1. Further, in data set [1] (setting [8]), the “Immunogenicity Tumor” value is listed as 0/1.
As to “aKXVAAWTLKAAa-NH2 [PADRE®, a=D-alanine, X=cyclohexylalanine]”, the “safety in the trial (in words)” value in [4] was “favorable safety profile”.

Broadly, the IC50 is the concentration that gives 50% inhibition. A high value points to a need for much substance.
